Measured values published in patent US20240228482A1, “COMPOUNDS, COMPOSITIONS AND METHODS OF TREATING CANCER” (HOTSPOT THERAPEUTICS, INC., priority 2021, published 2024).

Target: T1, CBL-B (Homo sapiens, UniProt Q13191)
T1 construct: GST
Assay: CBL-B TR-FRET IC50 screening (E1/E2 ubiquitination, Biotin-Ubiquitin, Anti GST-Tb donor / Streptavidin-d2 acceptor)
Format: biochemical
Conditions: CBL-B 10 nM final; 11-point titration from 100 uM; binned A-F; read-out: CBL-B TR-FRET activity IC50

T1 sequence (Q13191 whole entry): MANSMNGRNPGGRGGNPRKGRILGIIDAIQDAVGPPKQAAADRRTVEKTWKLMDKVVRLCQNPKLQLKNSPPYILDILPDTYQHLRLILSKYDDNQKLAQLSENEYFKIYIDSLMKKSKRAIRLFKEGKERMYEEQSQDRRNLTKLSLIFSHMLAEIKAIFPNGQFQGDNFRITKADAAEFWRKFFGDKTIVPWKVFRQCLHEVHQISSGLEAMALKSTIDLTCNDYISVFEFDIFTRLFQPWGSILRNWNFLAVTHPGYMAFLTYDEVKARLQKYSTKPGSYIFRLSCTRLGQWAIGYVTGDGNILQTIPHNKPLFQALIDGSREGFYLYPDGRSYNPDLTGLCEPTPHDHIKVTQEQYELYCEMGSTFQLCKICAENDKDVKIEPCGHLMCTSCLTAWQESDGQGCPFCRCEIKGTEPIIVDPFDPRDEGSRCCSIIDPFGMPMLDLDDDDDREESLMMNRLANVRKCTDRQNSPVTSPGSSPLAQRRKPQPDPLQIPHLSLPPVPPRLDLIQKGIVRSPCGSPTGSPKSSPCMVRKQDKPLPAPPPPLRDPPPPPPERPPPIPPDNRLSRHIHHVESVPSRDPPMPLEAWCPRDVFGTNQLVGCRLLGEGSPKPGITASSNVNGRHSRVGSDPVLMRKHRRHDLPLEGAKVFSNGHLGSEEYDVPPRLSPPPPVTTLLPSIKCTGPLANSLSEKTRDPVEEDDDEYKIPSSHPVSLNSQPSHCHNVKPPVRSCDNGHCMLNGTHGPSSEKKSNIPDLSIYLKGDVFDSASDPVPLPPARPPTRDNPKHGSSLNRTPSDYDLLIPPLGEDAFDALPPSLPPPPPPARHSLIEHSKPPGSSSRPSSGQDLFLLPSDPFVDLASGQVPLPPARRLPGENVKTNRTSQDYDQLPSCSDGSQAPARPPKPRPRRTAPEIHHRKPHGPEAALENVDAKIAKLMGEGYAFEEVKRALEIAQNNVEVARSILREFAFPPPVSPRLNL

IC50 [nM]	SMILES
> 10000	C[C@H]1CCCN(Cc2cc(C(F)(F)F)c3cn(-c4cccc([C@H](CC5CCC5)c5nncn5C)c4)c(=O)n3c2)C1 [Compound 352_P1]
< 100	C[C@H]1CCCN(Cc2cc(C(F)(F)F)c3cn(-c4cccc([C@@H](CC5CC5)c5nncn5C)c4)c(=O)n3c2)C1 [Compound 332-p2]
< 100	Cn1cnnc1[C@H](F)C1(c2cccc(-n3cc4c(C(F)(F)F)cc(CN5CCC(F)CC5)cn4c3=O)c2)COC1 (single isomer, unassigned) [Compound 45]
< 100	CC(c1cc(C(F)(F)F)c2cn(-c3cccc(C4(Cc5nncn5C)COC4)c3)c(=O)n2c1)N1CCC[C@H](C)C1 (single isomer, unassigned) [Compound 119]
< 100	C[C@@H]1CN(Cc2cc(C(F)(F)F)c3cn(-c4cccc(C5(Cc6nncn6C)COC5)c4)c(=O)n3c2)C[C@@H](C)O1 [Compound 201]
< 100	COC1(C)CN(Cc2cc(C(F)(F)F)c3cn(-c4cccc([C@H](c5nncn5C)C5CCC5)c4)c(=O)n3c2)C1 [Compound 296]
1000 to 3000	C[C@H]1CCCN1Cc1cc(C(F)(F)F)c2cn(-c3cccc([C@@H](c4nncn4C)C4CCC4)c3)c(=O)n2c1 [Compound 380_P1]
< 100	CO[C@H]1C[C@](c2cccc(-n3cc4c(C(F)(F)F)cc(CN5CCC[C@H](C)C5)cn4c3=O)c2)(c2nncn2C)C1 (single isomer, unassigned) [Compound 319]
< 100	CC1CN(Cc2cc(C(F)(F)F)c3cn(-c4cccc([C@H](c5nncn5C)C5CCC5)c4)c(=O)n3c2)CCC1(F)F (single isomer, unassigned) [Compound 171]
100 to 300	Cn1cnnc1CC1(c2cccc(-n3cc4c(C(F)(F)F)cc(CN5CC[C@@H](O)C5)cn4c3=O)c2)COC1 [Compound 130]
100 to 300	C[C@H]1CCCN(Cc2cc(C(F)(F)F)c3cn(-c4cccc([C@]5(c6nncs6)C[C@@H](C)C5)c4)c(=O)n3c2)C1 (single isomer, unassigned) [Compound 292]

The remaining lines, values behind:

SMILES	IC50 [nM]
Cn1cnnc1CC1(c2cccc(-n3cc4c(C(F)(F)F)cc(C5CCNC5)cn4c3=O)c2)COC1 (stereo not drawn) [Compound 80]	301 to 1000
CN1CCN(Cc2cc(C(F)(F)F)c3cn(-c4cccc([C@@H](c5nncn5C)C5CCC5)c4)c(=O)n3c2)CC1=O [Compound 364_P1]	301 to 1000
Cc1cccn2c(=O)n(-c3cccc(C4(Cc5nncn5C)COC4)c3)cc12 [Compound 70]	301 to 1000
COC[C@@H]1CCCN1Cc1cc(C(F)(F)F)c2cn(-c3cccc([C@H](c4nncn4C)C4CCC4)c3)c(=O)n2c1 [Compound 382_P2]	1000 to 3000
C[C@@H]1CN(Cc2cc(C(F)(F)F)c3cn(-c4cccc([C@@H](c5nncs5)C5CCC5)c4)c(=O)n3c2)CCO1 [Compound 300]	1000 to 3000
C[C@@H]1CCCCN1Cc1cc(C(F)(F)F)c2cn(-c3cccc([C@@H](c4nncn4C)C4CCC4)c3)c(=O)n2c1 [Compound 363_P1]	> 10000
Cc1conc1CC1(c2cccc(-n3cc4c(C(F)(F)F)cc(Br)cn4c3=O)c2)COC1 [Compound 168]	100 to 300
CN(C)C1CCC(c2cc(C(F)(F)F)c3cn(-c4cccc(C5(Cc6nncn6C)COC5)c4)c(=O)n3c2)CC1 (stereo not drawn) [Compound 87]	100 to 300
C[C@H]1CCCN(Cc2cc(C(F)(F)F)c3cn(-c4cccc([C@H](c5nc(C#N)cs5)C5CCC5)c4)c(=O)n3c2)C1 (single isomer, unassigned) [Compound 370]	> 10000
Cn1cnnc1CC1(c2cccc(-n3cc4c(C(F)(F)F)cc(CN5CC6(CCO6)C5)cn4c3=O)c2)COC1 [Compound 131]	< 100
CN(Cc1cc(C(F)(F)F)c2cn(-c3cccc([C@H](c4nncn4C)C4CCC4)c3)c(=O)n2c1)C1COC1 [Compound 323]	< 100
Cn1cnnc1[C@@H](c1cccc(-n2cc3c(C(F)(F)F)cc(CN4CCS(=O)(=O)CC4)cn3c2=O)c1)C1CCC1 [Compound 378]	< 100
Cn1cnnc1[C@@H](c1cccc(-n2cc3c(C(F)(F)F)cc(CNC4COC4)cn3c2=O)c1)C1CCC1 [Compound 324]	< 100
Cn1cnnc1[C@@H](c1cccc(-n2cc3c(C(F)(F)F)cc(CNCC4COC4)cn3c2=O)c1)C1CCC1 [Compound 322]	< 100
Cn1cnnc1[C@@H](c1cccc(-n2cc3c(C(F)(F)F)cc(CN4CC(C)(C)C4)cn3c2=O)c1)C1CCC1 [Compound 337]	< 100
Cn1cnnc1CC(c1cccc(-n2cc3c(C(F)(F)F)cccn3c2=O)c1)n1cccn1 (stereo not drawn) [Compound 142]	> 10000
COc1cc(-n2cc3c(C(F)(F)F)cc(CN4CC5(CC5)C4)cn3c2=O)cc(C2(Cc3nncn3C)COC2)c1 [Compound 110]	< 100
CC(c1cc(C(F)(F)F)c2cn(-c3cccc(C4(Cc5nncn5C)COC4)c3)c(=O)n2c1)N1CCO[C@H](C)C1 (single isomer, unassigned) [Compound 156]	< 100
CC(=O)c1cc(C(F)(F)F)c2cn(-c3cccc(C4(Cc5nncn5C)COC4)c3)c(=O)n2c1 [Compound 19]	1000 to 3000
C[C@H]1CCCN(Cc2cc(C(F)(F)F)c3cn(-c4cccc([C@@H](c5nc(C#N)cs5)C5CCC5)c4)c(=O)n3c2)C1 (single isomer, unassigned) [Compound 372]	> 10000
CO[C@H](C)CNCc1cc(C(F)(F)F)c2cn(-c3cccc(C4(Cc5nncn5C)COC4)c3)c(=O)n2c1 [Compound 266]	< 100
Cc1c[nH]nc1[C@@H](c1cccc(-n2cc3c(C(F)(F)F)cc(CN4CCC[C@H](C)C4)cn3c2=O)c1)C1COC1 [Compound 281]	> 10000
Cc1cn(CCO)nc1[C@@H](c1cccc(-n2cc3c(C(F)(F)F)cc(CN4CCC[C@H](C)C4)cn3c2=O)c1)C1CCC1 (single isomer, unassigned) [Compound 360]	> 10000
Cn1cnnc1C[C@@H]1CCc2c1cccc2-n1cc2c(C(F)(F)F)cccn2c1=O [Compound 17]	> 10000
C[C@@H](Sc1nncn1C)c1cccc(-n2cc3c(C(F)(F)F)cccn3c2=O)c1 [Compound 5]	> 10000

Same assay, conditions: second part of Table 2 (head 'Patent Cmpd No / Updated Activity'); same CBL-B TR-FRET IC50 bins A-F; read-out: Updated Activity

IC50 [nM]	SMILES
> 10000	[2H]C([2H])(c1cc(C(F)(F)F)c2cn(-c3cccc([C@@H](c4nncn4C)C4COC4)c3)c(=O)n2c1)N1CCC[C@H](C)C1 [Compound 565_P1]
< 100	CO[C@H]1C[C@@](c2cccc(-n3cc4c(C(F)(F)F)cc([C@H](C)N5CCC(F)CC5)cn4c3=O)c2)(c2nncn2C)C1 (single isomer, unassigned) [Compound 603]
> 10000	CO[C@]1(C)C[C@H]([C@H](c2cccc(-n3cc4c(C(F)(F)F)cc(CN5CCC[C@H](C)C5)cn4c3=O)c2)c2nncn2C)C1 (single isomer, unassigned) [Compound 529]
> 10000	C[C@@H]1CN(Cc2cc(C(F)(F)F)c3cn(-c4cccc(C5(c6nncn6C)CCC5)c4)c(=O)n3c2)CCO1 [Compound 432]
> 10000	C[C@H]1CCCN(Cc2cc(C(F)(F)F)c3cn(-c4cccc([C@H](c5nncn5C)C5CN(C)C5)c4)c(=O)n3c2)C1 [Compound 470_P1]
< 100	C[C@H]1CCCN(Cc2cc(C(F)(F)F)c3cn(-c4csc([C@@H](c5nncn5C)C5CCC5)c4)c(=O)n3c2)C1 [Compound 550_P1]
< 100	CO[C@H]1C[C@@](c2cccc(-n3cc4c(C(F)(F)F)cc([C@@H](C)N5CCC[C@H](C)C5)cn4c3=O)c2)(c2nncn2C)C1 (single isomer, unassigned) [Compound 600]
> 10000	Cc1cnnn1[C@H](c1cccc(-n2cc3c(C(F)(F)F)cc(CN4CCC[C@H](C)C4)cn3c2=O)c1)C1CCC1 (single isomer, unassigned) [Compound 582]
< 100	CO[C@H]1C[C@@](c2cccc(-n3cc4c(C(F)(F)F)cc([C@H](C)N5CC[C@H](F)C5)cn4c3=O)c2)(c2nncn2C)C1 (single isomer, unassigned) [Compound 616]
> 10000	CC(C)n1cnnc1[C@@H](c1cccc(-n2cc3c(C(F)(F)F)cc(CN4CCC[C@H](C)C4)cn3c2=O)c1)C1CCC1 (single isomer, unassigned) [Compound 425]

The remaining lines, values behind:

SMILES	IC50 [nM]
Cn1cnnc1[C@@H](c1cc(-c2cnoc2)cc(-n2cc3c(C(F)(F)F)cccn3c2=O)c1)C1CCC1 (single isomer, unassigned) [Compound 455]	> 10000
CC(=O)N(C)Cc1cc([C@H](c2nncn2C)C2CCC2)cc(-n2cc3c(C(F)(F)F)cccn3c2=O)c1 (single isomer, unassigned) [Compound 513]	> 10000
Cn1cnnc1[C@H](c1cc(-c2cncnc2)cc(-n2cc3c(C(F)(F)F)cccn3c2=O)c1)C1CCC1 (single isomer, unassigned) [Compound 447]	> 10000
[2H]C([2H])(c1cc(C(F)(F)F)c2cn(-c3cccc([C@H](c4nncn4C)C4CCC4)c3)c(=O)n2c1)N1CCC(C)(F)CC1 [Compound 526]	< 100
CCS(=O)(=O)N(C)Cc1cc(C(F)(F)F)c2cn(-c3cccc([C@H](c4nncn4C)C4CCC4)c3)c(=O)n2c1 [Compound 590]	< 100
Cn1cnnc1[C@@H](c1cc(F)cc(-n2cc3c(C(F)(F)F)cc(CN4CC(F)(F)C4)cn3c2=O)c1)C1CCC1 (single isomer, unassigned) [Compound 620]	100 to 300
C[C@@H]1CCN1Cc1cc(C(F)(F)F)c2cn(-c3cccc([C@H](c4nncn4C)C4CCC4)c3)c(=O)n2c1 [Compound 547]	< 100
Cn1cnnc1[C@@H](c1cc(-c2cncnc2)cc(-n2cc3c(C(F)(F)F)cccn3c2=O)c1)C1CCC1 (single isomer, unassigned) [Compound 448]	> 10000
Cn1cnnc1[C@@H](c1cccc(-n2cc3c(C(F)(F)F)cc(CN4CCC5CC54)cn3c2=O)c1)C1CCC1 (stereo partly drawn) [Compound 528]	< 100
C[C@@H]1CN(Cc2cc(C(F)(F)F)c3cn(-c4cc(C#N)cc([C@@H](c5nncn5C)C5CCC5)c4)c(=O)n3c2)CCO1 (single isomer, unassigned) [Compound 517]	> 10000
CN1CCN(Cc2cc(C(F)(F)F)c3cn(-c4cccc([C@H](c5nncn5C)C5CCC5)c4)c(=O)n3c2)C1=O [Compound 483]	< 100
